Legend:
[1] = compound: O=C(Nc1ccc2[nH]nc(-c3ccncc3)c2c1)[C@@H]1CCN(CC(=O)N2CCN(c3ccc(-c4ncccn4)cc3)CC2)C1; conditions: max 5 µM
How it was run: (§1)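 Plates with 1536 wells received cancer cell lines in 7.5 μl of DMEM/F12 or RPMI containing 10% FBS. After 24 hours at 37°C and 5% CO2, cells were dosed for 72 hours with final DMSO typically 0.2%, and viability was read by CellTiter-Glo 2.0 luminescence scaled between blank-well and DMSO-well means. The single-agent IC50 was taken from a logistic fit of the dose responses made with a non-linear mixed effects model, that logistic curve having two parameters.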

AZD1775 = compound: C=CCn1c(=O)c2cnc(Nc3ccc(N4CCN(C)CC4)cc3)nc2n1-c1cccc(C(C)(C)O)n1 [AZD1775]; conditions: max 3 µM
How it was run: as §1

Alisertib = compound: COc1cc(Nc2ncc3c(n2)-c2ccc(Cl)cc2C(c2c(F)cccc2OC)=NC3)ccc1C(=O)O [Alisertib]; conditions: max 10 µM
How it was run: as §1

AZD4320 = compound: CN(CC[C@H](CSC1=CC=CC=C1)NC2=C(C=C(C=C2)S(=O)(=O)NC(=O)C3=CC=C(C=C3)N4CCC(CC4)[C@H](C5=CC=CC=C5C6=CC=C(C=C6)Cl)O)S(=O)(=O)C(F)(F)F)CCO [AZD4320]; conditions: max 1 µM
How it was run: as §1

Paclitaxel = compound: CC(=O)O[C@H]1C(=O)[C@@]2(C)[C@H]([C@H](OC(=O)c3ccccc3)[C@]3(O)C[C@H](OC(=O)[C@H](O)[C@@H](NC(=O)c4ccccc4)c4ccccc4)C(C)=C1C3(C)C)[C@]1(OC(C)=O)CO[C@@H]1C[C@@H]2O [Paclitaxel]; conditions: max 3 µM
How it was run: as §1

AZD6738 = compound: C[C@@H]1COCCN1C2=NC(=NC(=C2)C3(CC3)[S@](=N)(=O)C)C4=C5C=CNC5=NC=C4 [AZD6738]; conditions: max 10 µM
How it was run: as §1

Crizotinib = compound: C[C@@H](Oc1cc(-c2cnn(C3CCNCC3)c2)cnc1N)c1c(Cl)ccc(F)c1Cl [Crizotinib]; conditions: max 10 µM
How it was run: as §1

AZD1390 = compound: CC(C)n1c(=O)n(C)c2cnc3cc(F)c(-c4ccc(OCCCN5CCCCC5)nc4)cc3c21 [AZD1390]; conditions: max 0.3 µM
How it was run: as §1

Etoposide = compound: COc1cc([C@@H]2c3cc4c(cc3[C@@H](O[C@@H]3O[C@@H]5CO[C@@H](C)O[C@H]5[C@H](O)[C@H]3O)[C@H]3COC(=O)[C@H]23)OCO4)cc(OC)c1O [Etoposide]; conditions: max 10 µM
How it was run: as §1

Olaparib = compound: O=C(c1cc(Cc2n[nH]c(=O)c3ccccc23)ccc1F)N1CCN(C(=O)C2CC2)CC1 [Olaparib]; conditions: max 10 µM
How it was run: as §1

Prexasertib = compound: COc1cccc(OCCCN)c1-c1cc(Nc2cnc(C#N)cn2)n[nH]1 [Prexasertib]; conditions: max 1 µM
How it was run: as §1

Palbociclib = compound: CC(=O)c1c(C)c2cnc(Nc3ccc(N4CCNCC4)cn3)nc2n(C2CCCC2)c1=O [Palbociclib]; conditions: max 10 µM
How it was run: as §1

Savolitinib = compound: C[C@@H](c1ccc2nccn2c1)n1nnc2ncc(-c3cnn(C)c3)nc21 [Savolitinib]; conditions: max 1 µM
How it was run: as §1

SG3199 = compound: CC1=CN2[C@@H](C1)C=NC3=CC(=C(C=C3C2=O)OC)OCCCCCOC4=C(C=C5C(=C4)N=C[C@@H]6CC(=CN6C5=O)C)OC [SG3199]; conditions: max 0.001 µM
How it was run: as §1

Carboplatin = compound: C1CC(C1)(C(=O)[O-])C(=O)[O-].N.N.[Pt+2] [Carboplatin]; conditions: max 10 µM
How it was run: as §1

MK-2206 = compound: NC1(c2ccc(-c3nc4ccn5c(=O)[nH]nc5c4cc3-c3ccccc3)cc2)CCC1 [MK-2206]; conditions: max 10 µM
How it was run: as §1

5-Fluorouracil = compound: O=c1[nH]cc(F)c(=O)[nH]1 [5-Fluorouracil]; conditions: max 20 µM
How it was run: as §1

AZD7648 = compound: Cc1cc2ncnn2cc1Nc1ncc2c(n1)n(C1CCOCC1)c(=O)n2C [AZD7648]; conditions: max 10 µM
How it was run: as §1

SN-38 = compound: CCc1c2c(nc3ccc(O)cc13)-c1cc3c(c(=O)n1C2)COC(=O)[C@]3(O)CC [SN-38]; conditions: max 0.3 µM
How it was run: as §1

AZD2811 = compound: CCN(CCO)CCCOc1ccc2c(Nc3cc(CC(=O)Nc4cccc(F)c4)[nH]n3)ncnc2c1 [AZD2811]; conditions: max 1 µM
How it was run: as §1

Trametinib = compound: CC(=O)Nc1cccc(-n2c(=O)n(C3CC3)c(=O)c3c(Nc4ccc(I)cc4F)n(C)c(=O)c(C)c32)c1 [Trametinib]; conditions: max 1 µM
How it was run: as §1

Gefitinib = compound: COc1cc2ncnc(Nc3ccc(F)c(Cl)c3)c2cc1OCCCN1CCOCC1 [Gefitinib]; conditions: max 10 µM
How it was run: as §1

Gemcitabine = compound: Nc1ccn([C@@H]2O[C@H](CO)[C@@H](O)C2(F)F)c(=O)n1 [Gemcitabine]; conditions: max 0.3 µM
How it was run: as §1

Selumetinib = compound: Cn1cnc2c(F)c(Nc3ccc(Br)cc3Cl)c(C(=O)NOCCO)cc21 [Selumetinib]; conditions: max 10 µM
How it was run: as §1

AZD8186 = compound: C[C@@H](Nc1cc(F)cc(F)c1)c1cc(C(=O)N(C)C)cc2c(=O)cc(N3CCOCC3)oc12 [AZD8186]; conditions: max 10 µM
How it was run: as §1

AZD5991 = compound: Cc1c2c(nn1C)CSCc1cc(n(C)n1)CSc1cc(c3ccccc3c1)OCCCc1c(C(=O)O)n(C)c3c-2c(Cl)ccc13 [AZD5991]; conditions: max 1 µM
How it was run: as §1

Taselisib = compound: Cc1nc(-c2cn3c(n2)-c2ccc(-c4cnn(C(C)(C)C(N)=O)c4)cc2OCC3)n(C(C)C)n1 [Taselisib]; conditions: max 10 µM
How it was run: as §1

Lapatinib = compound: CS(=O)(=O)CCNCc1ccc(-c2ccc3ncnc(Nc4ccc(OCc5cccc(F)c5)c(Cl)c4)c3c2)o1 [Lapatinib]; conditions: max 10 µM
How it was run: as §1

AZD5153 = compound: COc1nnc2ccc(N3CCC(c4ccc(OCCN5CCN(C)C(=O)[C@H]5C)cc4)CC3)nn12 [AZD5153]; conditions: max 1 µM
How it was run: as §1

Venetoclax = compound: CC1(C)CCC(CN2CCN(c3ccc(C(=O)NS(=O)(=O)c4ccc(NCC5CCOCC5)c([N+](=O)[O-])c4)c(Oc4cnc5[nH]ccc5c4)c3)CC2)=C(c2ccc(Cl)cc2)C1 [Venetoclax]; conditions: max 1 µM
How it was run: as §1

SRA737 = compound: N#Cc1cnc(Nc2cc(NC[C@H]3CNCCO3)c(C(F)(F)F)cn2)cn1 [SRA737]; conditions: max 10 µM
How it was run: as §1

AZD0156 = compound: CN(C)CCCOc1ccc(-c2ccc3ncc4c(c3c2)n(C2CCOCC2)c(=O)n4C)cn1 [AZD0156]; conditions: max 3 µM
How it was run: as §1

AZD5363 = compound: C1CN(CCC1(C(=O)N[C@@H](CCO)C2=CC=C(C=C2)Cl)N)C3=NC=NC4=C3C=CN4 [AZD5363]; conditions: max 10 µM
How it was run: as §1

Doxorubicin = compound: COc1cccc2c1C(=O)c1c(O)c3c(c(O)c1C2=O)C[C@@](O)(C(=O)CO)C[C@@H]3O[C@H]1C[C@H](N)[C@H](O)[C@H](C)O1 [Doxorubicin]; conditions: max 1 µM
How it was run: as §1

Dasatinib = compound: CC1=C(C(=CC=C1)Cl)NC(=O)C2=CN=C(S2)NC3=CC(=NC(=N3)C)N4CCN(CC4)CCO [Dasatinib]; conditions: max 2 µM
How it was run: as §1

Row | Cell Line | IC50, cell viability 72 h [1] | IC50, cell viability 72 h (AZD1775) | IC50, cell viability 72 h (Alisertib) | IC50, cell viability 72 h (AZD4320) | IC50, cell viability 72 h (Paclitaxel) | IC50, cell viability 72 h (AZD6738) | IC50, cell viability 72 h (Crizotinib) | IC50, cell viability 72 h (AZD1390) | IC50, cell viability 72 h (Etoposide) | IC50, cell viability 72 h (Olaparib) | IC50, cell viability 72 h (Prexasertib) | IC50, cell viability 72 h (Palbociclib) | IC50, cell viability 72 h (Savolitinib) | IC50, cell viability 72 h (SG3199) | IC50, cell viability 72 h (Carboplatin) | IC50, cell viability 72 h (MK-2206) | IC50, cell viability 72 h (5-Fluorouracil) | IC50, cell viability 72 h (AZD7648) | IC50, cell viability 72 h (SN-38) | IC50, cell viability 72 h (AZD2811) | IC50, cell viability 72 h (Trametinib) | IC50, cell viability 72 h (Gefitinib) | IC50, cell viability 72 h (Gemcitabine) | IC50, cell viability 72 h (Selumetinib) | IC50, cell viability 72 h (AZD8186) | IC50, cell viability 72 h (AZD5991) | IC50, cell viability 72 h (Taselisib) | IC50, cell viability 72 h (Lapatinib) | IC50, cell viability 72 h (AZD5153) | IC50, cell viability 72 h (Venetoclax) | IC50, cell viability 72 h (SRA737) | IC50, cell viability 72 h (AZD0156) | IC50, cell viability 72 h (AZD5363) | IC50, cell viability 72 h (Doxorubicin) | IC50, cell viability 72 h (Dasatinib)
1 | KGN (Other Solid Carcinomas) | > 5 µM | 0.49 µM | 1.59 µM | > 1 µM | 0.0128 µM | 2.75 µM | 4.34 µM | > 0.3 µM | 2 µM | > 10 µM | 0.117 µM | 2.85 µM | > 1 µM | > 0.001 µM | > 10 µM | > 10 µM | > 20 µM | > 10 µM | 0.00895 µM | 0.451 µM | 0.999 µM | > 10 µM | 0.00601 µM | > 10 µM | 3.86 µM | > 1 µM | 2.32 µM | > 10 µM | 0.153 µM | > 1 µM | > 10 µM | > 3 µM | > 10 µM | 0.095 µM | 0.167 µM
2 | ME-180 (Cervical Carcinoma) | > 5 µM | 1.45 µM | 9.54 µM | > 1 µM | 0.141 µM | > 10 µM | > 10 µM | > 0.3 µM | 3.73 µM | > 10 µM | > 1 µM | > 10 µM | > 1 µM | > 0.001 µM | > 10 µM | > 10 µM | > 20 µM | > 10 µM | 0.0158 µM | > 1 µM | > 1 µM | > 10 µM | 0.13 µM | > 10 µM | > 10 µM | > 1 µM | 0.734 µM | > 10 µM | > 1 µM | > 1 µM | > 10 µM | > 3 µM | 2.13 µM | > 1 µM | 1.24 µM
3 | MOLT-4 (T-Lymphoblastic Leukemia) | > 5 µM | 0.428 µM | 0.0376 µM | 0.0931 µM | 0.0066 µM | 1.69 µM | 2.11 µM | > 0.3 µM | 0.123 µM | > 10 µM | 0.0132 µM | 7.92 µM | > 1 µM | > 0.001 µM | > 10 µM | 6.71 µM | 12.8 µM | > 10 µM | 0.00299 µM | 0.0311 µM | > 1 µM | > 10 µM | 0.0583 µM | > 10 µM | > 10 µM | > 1 µM | 5.93 µM | > 10 µM | > 1 µM | > 1 µM | 2.31 µM | > 3 µM | 4.18 µM | 0.057 µM | > 2 µM
4 | SKN (Other Solid Carcinomas) | > 5 µM | > 3 µM | > 10 µM | > 1 µM | 0.0953 µM | > 10 µM | > 10 µM | > 0.3 µM | > 10 µM | > 10 µM | > 1 µM | > 10 µM | > 1 µM | > 0.001 µM | > 10 µM | > 10 µM | > 20 µM | > 10 µM | > 0.3 µM | > 1 µM | > 1 µM | > 10 µM | > 0.3 µM | > 10 µM | 1.84 µM | > 1 µM | 2.87 µM | > 10 µM | 0.446 µM | > 1 µM | > 10 µM | > 3 µM | 5.64 µM | > 1 µM | 0.179 µM
5 | COLO-679 (Melanoma) | 0.0906 µM | > 3 µM | > 10 µM | > 1 µM | 0.658 µM | 4.92 µM | > 10 µM | > 0.3 µM | 7.18 µM | > 10 µM | 0.0112 µM | > 10 µM | > 1 µM | > 0.001 µM | > 10 µM | > 10 µM | > 20 µM | > 10 µM | 0.0461 µM | > 1 µM | 0.0037 µM | > 10 µM | 0.0152 µM | 0.242 µM | > 10 µM | > 1 µM | > 10 µM | > 10 µM | > 1 µM | > 1 µM | 1.89 µM | > 3 µM | > 10 µM | 0.342 µM | > 2 µM

— the supplement of paper PMC11061612
